Key:
[1] = pH stability of […]-Phe3 (dose–response and fluorescence intensity at pH 6.5, 7.5, 8.5); assay type: biochemical; settings: for fluorescence response of GECFINDER, AVE of 3 repeats: Supplementary Fig. 3 e; for fluorescence intensity, AVE of 3 repeats: Supplementary Fig. 3 d, 100 μM Phe
Description: As cpEGFP is sensitive to pH, we conducted a dose-response curve and fluorescence intensity analysis of […]-Phe3 at varying pH levels. […] In addition, we expanded the range of ligand-binding domains (LBDs) applicable to […] and attempted optimization of insertion sites for cpEGFP with limited success. Please refer to Supplemental Note 1 for detailed information.
The study conducted dose–response curve, substrate specificity, and fluorescent spectrum analyses in 100-mM Tris buffer (pH = 7.5), while pH stability experiments were performed in 100-mM Tris buffer at three different pH values (6.5, 7.5, and 8.5) at room temperature. […] protein at a concentration of 0.75 μM, various small molecule concentrations, 1 mM ATP, and 2.5 mM MgCl2 were used in the experiments. Fluorescent signals were detected using a Microplate Reader (Synergy H4, Bio Tek) at an excitation/emission wavelength of 460 nm/510 nm or 480 nm/510 nm. The dose-response curve was determined immediately after the addition of the analyte. The total duration of the measurement was 15 min, with readings taken at one-minute intervals. The dose-response curve was plotted using the fluorescence values obtained after achieving stability in the fluorescence signal. The dose-response curves were fitted using the logistic model LOGISTIC5 available in Origin 2021, which could provide a more adequate fit to asymmetric dose-response data[62],[63]. Excitation spectra were scanned from 300 to 540 nm with a step size of 5 nm, and the emission wavelength was set to 560 nm. Emission spectra were scanned from 470 to 700 nm with a step size of 5 nm, and the excitation wavelength was set to 450 nm. The thermal stability of […] was analyzed using the UNcle multifunctional protein stability analysis system. Measurements were performed in 20 mM MOPS buffer with 2 mM DTT at a sample concentration of 1 mg/mL. Absolute fluorescence quantum yields were measured using an absolute photoluminescence quantum yield spectrometer (FS5, Edinburgh). […]
β-P he. […]
All data shown are mean s ± S.D . (n =3 biologically inde pendent samples). Source
data are provided as a Source Data file.
(also on this page, place not known: 10210-210-3 Normalized Normalized […]-Leu3 10-4 10⁵ 2.5 Normalized ΔF/F 0 AlaAr As p As […]Pr SerThr ValTrpTyr Ph R-β-Ph β-Ph e 2.5Normalized ΔF/F 0 Substrate 100μM 100μM 100μM Fluorescence ...K ...N GrsA-PheA PpsA-GluA -QSVF- 10⁰ 10⁵ […]-Ile(VF-QS) Normalized ΔF/F 0 (μM) 0mM 0.75mM His 12×10³Intensity f g Substrate specificity engineering insertion optimization […]. Dose–response purified […]-Leu2 increasing concentrations normalized ΔF/F0 […]-SβF acids R/S- β-Phe. concentrations substrates Fluorescence purified […]-Phe3 different control fluorescence substrate added. response purified […]-Phe3 increasing concentrations different junction domain Dose–response curve purified […]-Ile (VF-QS) increasing concentrations Normalized ΔF/F0 increased after excitation).h, Difference fluorescence intensity […]-His (VF-QS) presence histidine compared control means S.D. (n=3 independent) […]

GECFINDER-Phe1 = molecular target: T1, GECFINDER-Phe1 (Aneurinibacillus migulanus, UniProt P0C061); assay: Fluorescence dose-response of purified cpEGFP sensors (0.75 uM) in 100 mM Tris-HCl pH 7.5, room temperature, 1 mM ATP, 2.5 mM MgCl2; excitation 400, 460 or 480 nm by sensor, emission 510 nm; logistic five-parameter fit.; assay type: biochemical; settings: n = 3
T1 construct: gene grsA; GrsA-PheA-PCP; cpEGFP inserted in hinge B, linkers CC-DR
Protocol: Fig. 3 Dose–response curves and fluorescence spectrums of […]s. a, c, e, g, i, k Dose–response curve of purified […]s with increasing concentrations of ligand in 100 mM Tris-HCl buffer (pH=7.5). The normalized ΔF/F0 value increased after ligand binding. All data shown are mean ± S.D. (n = 3 biologically independent samples). b, d, f, h, j, l The fluorescence spectra of […]s changed as the ligand concentration increased. All data shown are mean ± S.D. (n = 3 biologically independent samples). Source data are provided as a Source data file.
The study conducted dose–response curve, substrate specificity, and fluorescent spectrum analyses in 100-mM Tris buffer (pH = 7.5), while pH stability experiments were performed in 100-mM Tris buffer at three different pH values (6.5, 7.5, and 8.5) at room temperature. […] protein at a concentration of 0.75 μM, various small molecule concentrations, 1 mM ATP, and 2.5 mM MgCl2 were used in the experiments. Fluorescent signals were detected using a Microplate Reader (Synergy H4, Bio Tek) at an excitation/emission wavelength of 460 nm/510 nm or 480 nm/510 nm. The dose-response curve was determined immediately after the addition of the analyte. The total duration of the measurement was 15 min, with readings taken at one-minute intervals. The dose-response curve was plotted using the fluorescence values obtained after achieving stability in the fluorescence signal. The dose-response curves were fitted using the logistic model LOGISTIC5 available in Origin 2021, which could provide a more adequate fit to asymmetric dose-response data[62],[63]. Excitation spectra were scanned from 300 to 540 nm with a step size of 5 nm, and the emission wavelength was set to 560 nm. Emission spectra were scanned from 470 to 700 nm with a step size of 5 nm, and the excitation wavelength was set to 450 nm. The thermal stability of […] was analyzed using the UNcle multifunctional protein stability analysis system. Measurements were performed in 20 mM MOPS buffer with 2 mM DTT at a sample concentration of 1 mg/mL. Absolute fluorescence quantum yields were measured using an absolute photoluminescence quantum yield spectrometer (FS5, Edinburgh).

T1 sequence (P0C061 1-617): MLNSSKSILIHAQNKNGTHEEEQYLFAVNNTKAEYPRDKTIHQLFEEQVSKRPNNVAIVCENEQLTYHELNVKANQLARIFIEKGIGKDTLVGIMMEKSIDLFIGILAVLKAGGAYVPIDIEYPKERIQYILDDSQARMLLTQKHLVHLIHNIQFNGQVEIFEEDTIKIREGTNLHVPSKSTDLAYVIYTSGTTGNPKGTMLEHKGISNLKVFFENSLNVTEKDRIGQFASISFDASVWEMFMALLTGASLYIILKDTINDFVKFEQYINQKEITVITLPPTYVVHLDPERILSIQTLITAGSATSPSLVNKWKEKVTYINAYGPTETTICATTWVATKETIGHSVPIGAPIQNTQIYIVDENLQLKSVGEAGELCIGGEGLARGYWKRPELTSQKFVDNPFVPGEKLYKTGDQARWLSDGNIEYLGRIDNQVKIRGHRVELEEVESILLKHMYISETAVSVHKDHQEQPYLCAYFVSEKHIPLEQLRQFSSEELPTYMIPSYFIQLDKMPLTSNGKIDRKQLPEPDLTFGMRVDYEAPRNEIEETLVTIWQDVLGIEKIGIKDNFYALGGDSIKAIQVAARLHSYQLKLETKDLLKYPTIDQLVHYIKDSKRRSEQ

## N[C@@H](Cc1ccccc1)C(=O)O [Phe]
[1]; pH6.5, Phe 0.001 μM
  fluorescence response of GECFINDER, AVE of 3 repeats: -5.5222e-17
[1]; pH6.5, Phe 0.005 μM
  fluorescence response of GECFINDER, AVE of 3 repeats: 0.01941
[1]; pH6.5, Phe 0.01 μM
  fluorescence response of GECFINDER, AVE of 3 repeats: 0.04517
[1]; pH6.5, Phe 0.05 μM
  fluorescence response of GECFINDER, AVE of 3 repeats: 0.1259
[1]; pH6.5, Phe 0.1 μM
  fluorescence response of GECFINDER, AVE of 3 repeats: 0.2201
[1]; pH6.5, Phe 0.5 μM
  fluorescence response of GECFINDER, AVE of 3 repeats: 0.7727
[1]; pH6.5, Phe 1 μM
  fluorescence response of GECFINDER, AVE of 3 repeats: 1.198
[1]; pH6.5, Phe 5 μM
  fluorescence response of GECFINDER, AVE of 3 repeats: 2.235
[1]; pH6.5, Phe 10 μM
  fluorescence response of GECFINDER, AVE of 3 repeats: 2.5727
[1]; pH6.5, Phe 25 μM
  fluorescence response of GECFINDER, AVE of 3 repeats: 2.94
[1]; pH6.5, Phe 50 μM
  fluorescence response of GECFINDER, AVE of 3 repeats: 3.093
[1]; pH6.5, Phe 100 μM
  fluorescence response of GECFINDER, AVE of 3 repeats: 3.166
[1]; pH7.5, Phe 0.001 μM
  fluorescence response of GECFINDER, AVE of 3 repeats: 0
[1]; pH7.5, Phe 0.005 μM
  fluorescence response of GECFINDER, AVE of 3 repeats: 0.04668
[1]; pH7.5, Phe 0.01 μM
  fluorescence response of GECFINDER, AVE of 3 repeats: 0.05356
[1]; pH7.5, Phe 0.05 μM
  fluorescence response of GECFINDER, AVE of 3 repeats: 0.1413
[1]; pH7.5, Phe 0.1 μM
  fluorescence response of GECFINDER, AVE of 3 repeats: 0.2634
[1]; pH7.5, Phe 0.5 μM
  fluorescence response of GECFINDER, AVE of 3 repeats: 0.9215
[1]; pH7.5, Phe 1 μM
  fluorescence response of GECFINDER, AVE of 3 repeats: 1.384
[1]; pH7.5, Phe 5 μM
  fluorescence response of GECFINDER, AVE of 3 repeats: 2.412
[1]; pH7.5, Phe 10 μM
  fluorescence response of GECFINDER, AVE of 3 repeats: 2.788
[1]; pH7.5, Phe 25 μM
  fluorescence response of GECFINDER, AVE of 3 repeats: 3.108
[1]; pH7.5, Phe 50 μM
  fluorescence response of GECFINDER, AVE of 3 repeats: 3.25
[1]; pH7.5, Phe 100 μM
  fluorescence response of GECFINDER, AVE of 3 repeats: 3.385
[1]; pH8.5, Phe 0.001 μM
  fluorescence response of GECFINDER, AVE of 3 repeats: 5.725e-17
[1]; pH8.5, Phe 0.005 μM
  fluorescence response of GECFINDER, AVE of 3 repeats: 0.003084
[1]; pH8.5, Phe 0.01 μM
  fluorescence response of GECFINDER, AVE of 3 repeats: 0.009629
[1]; pH8.5, Phe 0.05 μM
  fluorescence response of GECFINDER, AVE of 3 repeats: 0.04022
[1]; pH8.5, Phe 0.1 μM
  fluorescence response of GECFINDER, AVE of 3 repeats: 0.0788
[1]; pH8.5, Phe 0.5 μM
  fluorescence response of GECFINDER, AVE of 3 repeats: 0.5458
[1]; pH8.5, Phe 1 μM
  fluorescence response of GECFINDER, AVE of 3 repeats: 0.9288
[1]; pH8.5, Phe 5 μM
  fluorescence response of GECFINDER, AVE of 3 repeats: 1.837
[1]; pH8.5, Phe 10 μM
  fluorescence response of GECFINDER, AVE of 3 repeats: 2.121
[1]; pH8.5, Phe 25 μM
  fluorescence response of GECFINDER, AVE of 3 repeats: 2.449
[1]; pH8.5, Phe 50 μM
  fluorescence response of GECFINDER, AVE of 3 repeats: 2.595
[1]; pH8.5, Phe 100 μM
  fluorescence response of GECFINDER, AVE of 3 repeats: 2.661
[1]; pH6.5
  fluorescence intensity, AVE of 3 repeats: 11375
[1]; pH7.5
  fluorescence intensity, AVE of 3 repeats: 18474.7
[1]; pH8.5
  fluorescence intensity, AVE of 3 repeats: 19389

## N[C@@H](Cc1ccccc1)C(=O)O [Phe, phenylalanine]
GECFINDER-Phe1
  EC50: 1.55 ± 0.23 µM
